Results from PubChem BioAssay AID2060912 (Molecular Pharmacology Branch, DTP, NCI, 2025).

Test system: HUVEC/MSC spheroids viability
Test: Human HUVEC/MSC cell line growth inhibition [KRAS2];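 as to viability, T/C: percent of DMSO vehicle control luminescence so 100% = untreated viability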
Conditions: for IC50: curve of first compound; for viability, T/C: stronger effect = lower value
In short: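 Spheroids of human HUVEC plus MSCs, without tumor cells, were treated with single agents and combinations. Each drug was tested in half-log steps down from near its clinical Cmax, or from 10 microM when Cmax was unknown. HUVEC and hMSC were used at passage </=5.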

[1] = second compound 0.0316 µM, first compound 0.0316 µM
[2] = second compound 0.0316 µM, first compound 0.1 µM
[3] = second compound 0.1 µM, first compound 0.0316 µM
[4] = second compound 0.1 µM, first compound 0.1 µM
[5] = second compound 0.316 µM, first compound 0.0316 µM
[6] = second compound 0.316 µM, first compound 0.1 µM
[7] = second compound 1 µM, first compound 0.0316 µM
[8] = second compound 1 µM, first compound 0.1 µM
[9] = second compound 3.16 µM, first compound 0.0316 µM
[10] = second compound 3.16 µM, first compound 0.1 µM
[11] = second compound 10 µM, first compound 0.0316 µM
[12] = second compound 10 µM, first compound 0.1 µM
[13] = second compound 0.0316 µM, first compound 0.316 µM
[14] = second compound 0.0316 µM, first compound 1 µM
[15] = second compound 0.0316 µM, first compound 3.16 µM
[16] = second compound 0.0316 µM, first compound 10 µM
[17] = second compound 0.1 µM, first compound 0.316 µM
[18] = second compound 0.1 µM, first compound 1 µM
[19] = second compound 0.1 µM, first compound 3.16 µM
[20] = second compound 0.1 µM, first compound 10 µM
[21] = second compound 0.316 µM, first compound 0.316 µM
[22] = second compound 0.316 µM, first compound 1 µM
[23] = second compound 0.316 µM, first compound 3.16 µM
[24] = second compound 0.316 µM, first compound 10 µM
[25] = second compound 1 µM, first compound 0.316 µM
[26] = second compound 1 µM, first compound 1 µM
[27] = second compound 1 µM, first compound 3.16 µM
[28] = second compound 1 µM, first compound 10 µM
[29] = second compound 3.16 µM, first compound 0.316 µM
[30] = second compound 3.16 µM, first compound 1 µM
[31] = second compound 3.16 µM, first compound 3.16 µM
[32] = second compound 3.16 µM, first compound 10 µM
[33] = second compound 10 µM, first compound 0.316 µM
[34] = second compound 10 µM, first compound 1 µM
[35] = second compound 10 µM, first compound 3.16 µM
[36] = second compound 10 µM, first compound 10 µM

## Cn1ncnc1[C@H]1c2n[nH]c(=O)c3cc(F)cc(c23)N[C@@H]1c1ccc(F)cc1 + C=CC(=O)N1CCN(c2nc(=O)n(-c3c(C)ccnc3C(C)C)c3nc(-c4c(O)cccc4F)c(F)cc23)C(C)C1
Second compound 0.0316 µM
  IC50: > 0.1 µM
Second compound 0.1 µM
  IC50: > 0.1 µM
Second compound 0.316 µM
  IC50: > 0.1 µM
Second compound 1 µM
  IC50: > 0.1 µM
Second compound 3.16 µM
  IC50: > 0.1 µM
Second compound 10 µM
  IC50: > 0.1 µM
Second compound 0.0316 µM, first compound 0.000316 µM
  viability, T/C: 101%
Second compound 0.0316 µM, first compound 0.001 µM
  viability, T/C: 100%
Second compound 0.0316 µM, first compound 0.00316 µM
  viability, T/C: 74.3%
Second compound 0.0316 µM, first compound 0.01 µM
  viability, T/C: 94.3%
[1]
  viability, T/C: 83.1%
[2]
  viability, T/C: 105%
Second compound 0.1 µM, first compound 0.000316 µM
  viability, T/C: 92.6%
Second compound 0.1 µM, first compound 0.001 µM
  viability, T/C: 117%
Second compound 0.1 µM, first compound 0.00316 µM
  viability, T/C: 101%
Second compound 0.1 µM, first compound 0.01 µM
  viability, T/C: 79.5%
[3]
  viability, T/C: 96.2%
[4]
  viability, T/C: 83.5%
Second compound 0.316 µM, first compound 0.000316 µM
  viability, T/C: 110%
Second compound 0.316 µM, first compound 0.001 µM
  viability, T/C: 110%
Second compound 0.316 µM, first compound 0.00316 µM
  viability, T/C: 97.2%
Second compound 0.316 µM, first compound 0.01 µM
  viability, T/C: 97.1%
[5]
  viability, T/C: 99.2%
[6]
  viability, T/C: 114%
Second compound 1 µM, first compound 0.000316 µM
  viability, T/C: 114%
Second compound 1 µM, first compound 0.001 µM
  viability, T/C: 106%
Second compound 1 µM, first compound 0.00316 µM
  viability, T/C: 95.4%
Second compound 1 µM, first compound 0.01 µM
  viability, T/C: 106%
[7]
  viability, T/C: 106%
[8]
  viability, T/C: 86%
Second compound 3.16 µM, first compound 0.000316 µM
  viability, T/C: 110%
Second compound 3.16 µM, first compound 0.001 µM
  viability, T/C: 141%
Second compound 3.16 µM, first compound 0.00316 µM
  viability, T/C: 101%
Second compound 3.16 µM, first compound 0.01 µM
  viability, T/C: 140%
[9]
  viability, T/C: 130%
[10]
  viability, T/C: 93.5%
Second compound 10 µM, first compound 0.000316 µM
  viability, T/C: 129%
Second compound 10 µM, first compound 0.001 µM
  viability, T/C: 127%
Second compound 10 µM, first compound 0.00316 µM
  viability, T/C: 112%
Second compound 10 µM, first compound 0.01 µM
  viability, T/C: 103%
[11]
  viability, T/C: 105%
[12]
  viability, T/C: 123%

## CC1(C)CCC(CN2CCN(c3ccc(C(=O)NS(=O)(=O)c4ccc(NCC5CCOCC5)c([N+](=O)[O-])c4)c(Oc4cnc5[nH]ccc5c4)c3)CC2)=C(c2ccc(Cl)cc2)C1 + COc1cc2nc(C)nc(NC(C)c3cc(N)cc(C(F)(F)F)c3)c2cc1OC1CCOC1
Second compound 0.0316 µM
  IC50: 5.09 µM
Second compound 0.1 µM
  IC50: 4.59 µM
Second compound 0.316 µM
  IC50: 4.78 µM
Second compound 1 µM
  IC50: 5.01 µM
Second compound 3.16 µM
  IC50: 5.49 µM
Second compound 10 µM
  IC50: 4.61 µM
[1]
  viability, T/C: 105%
[2]
  viability, T/C: 116%
[13]
  viability, T/C: 105%
[14]
  viability, T/C: 96.6%
[15]
  viability, T/C: 82.3%
[16]
  viability, T/C: 6.99%
[3]
  viability, T/C: 98.5%
[4]
  viability, T/C: 94.6%
[17]
  viability, T/C: 102%
[18]
  viability, T/C: 100%
[19]
  viability, T/C: 72.8%
[20]
  viability, T/C: 2.34%
[5]
  viability, T/C: 82.7%
[6]
  viability, T/C: 104%
[21]
  viability, T/C: 76.6%
[22]
  viability, T/C: 81.5%
[23]
  viability, T/C: 76.3%
[24]
  viability, T/C: 5.03%
[7]
  viability, T/C: 95.7%
[8]
  viability, T/C: 79.5%
[25]
  viability, T/C: 84%
[26]
  viability, T/C: 92%
[27]
  viability, T/C: 81%
[28]
  viability, T/C: 3.29%
[9]
  viability, T/C: 73.1%
[10]
  viability, T/C: 105%
[29]
  viability, T/C: 110%
[30]
  viability, T/C: 95.2%
[31]
  viability, T/C: 87.7%
[32]
  viability, T/C: 8.97%
[11]
  viability, T/C: 61.3%
[12]
  viability, T/C: 70.5%
[33]
  viability, T/C: 78.9%
[34]
  viability, T/C: 68.2%
[35]
  viability, T/C: 80.6%
[36]
  viability, T/C: 5.02%

## CCNC(=O)CC1N=C(c2ccc(Cl)cc2)c2cc(OC)ccc2-n2c(C)nnc21 (stereo unspecified) + C=CC(=O)N1CCN(c2nc(=O)n(-c3c(C)ccnc3C(C)C)c3nc(-c4c(O)cccc4F)c(F)cc23)C(C)C1
Second compound 0.0316 µM
  IC50: > 10 µM
Second compound 0.1 µM
  IC50: > 10 µM
Second compound 0.316 µM
  IC50: > 10 µM
Second compound 1 µM
  IC50: > 10 µM
Second compound 3.16 µM
  IC50: > 10 µM
Second compound 10 µM
  IC50: > 10 µM
[1]
  viability, T/C: 94.8%
[2]
  viability, T/C: 96.7%
[13]
  viability, T/C: 129%
[14]
  viability, T/C: 140%
[15]
  viability, T/C: 120%
[16]
  viability, T/C: 121%
[3]
  viability, T/C: 104%
[4]
  viability, T/C: 86.3%
[17]
  viability, T/C: 110%
[18]
  viability, T/C: 138%
[19]
  viability, T/C: 162%
[20]
  viability, T/C: 151%
[5]
  viability, T/C: 111%
[6]
  viability, T/C: 109%
[21]
  viability, T/C: 116%
[22]
  viability, T/C: 143%
[23]
  viability, T/C: 131%
[24]
  viability, T/C: 187%
[7]
  viability, T/C: 114%
[8]
  viability, T/C: 105%
[25]
  viability, T/C: 140%
[26]
  viability, T/C: 163%
[27]
  viability, T/C: 179%
[28]
  viability, T/C: 174%
[9]
  viability, T/C: 116%
[10]
  viability, T/C: 146%
[29]
  viability, T/C: 150%
[30]
  viability, T/C: 208%
[31]
  viability, T/C: 206%
[32]
  viability, T/C: 207%
[11]
  viability, T/C: 125%
[12]
  viability, T/C: 127%
[33]
  viability, T/C: 176%
[34]
  viability, T/C: 189%
[35]
  viability, T/C: 179%
[36]
  viability, T/C: 197%
